One data set deals with T1, hGIPR (Homo sapiens, UniProt P48546).
T1 construct: expressed in transfected cells; host or cells: CHO CRE-luciferase reporter cells
T1 sequence (P48546 22-466): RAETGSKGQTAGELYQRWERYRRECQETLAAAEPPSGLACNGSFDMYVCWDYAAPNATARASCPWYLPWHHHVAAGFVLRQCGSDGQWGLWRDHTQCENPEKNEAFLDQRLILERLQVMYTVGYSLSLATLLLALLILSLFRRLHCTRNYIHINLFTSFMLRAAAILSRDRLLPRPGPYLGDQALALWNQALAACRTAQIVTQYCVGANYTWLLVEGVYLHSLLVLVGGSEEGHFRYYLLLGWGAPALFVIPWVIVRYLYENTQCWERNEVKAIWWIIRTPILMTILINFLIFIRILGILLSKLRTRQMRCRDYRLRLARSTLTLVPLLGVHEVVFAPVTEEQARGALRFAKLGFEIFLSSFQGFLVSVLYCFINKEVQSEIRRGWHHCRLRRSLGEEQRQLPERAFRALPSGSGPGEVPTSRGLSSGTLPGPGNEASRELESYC
In words: hGIPR CreLuc assay in 0.5% and 100% plasma (CHO CRE-luciferase reporter cells). Type of data set: cell-based.

The target in the next data set is T2, hNPY2R (Homo sapiens, UniProt P49146).
T2 construct: expressed in transfected cells; host or cells: HEK-293 CRE-luciferase reporter cells
T2 sequence (P49146 1-381): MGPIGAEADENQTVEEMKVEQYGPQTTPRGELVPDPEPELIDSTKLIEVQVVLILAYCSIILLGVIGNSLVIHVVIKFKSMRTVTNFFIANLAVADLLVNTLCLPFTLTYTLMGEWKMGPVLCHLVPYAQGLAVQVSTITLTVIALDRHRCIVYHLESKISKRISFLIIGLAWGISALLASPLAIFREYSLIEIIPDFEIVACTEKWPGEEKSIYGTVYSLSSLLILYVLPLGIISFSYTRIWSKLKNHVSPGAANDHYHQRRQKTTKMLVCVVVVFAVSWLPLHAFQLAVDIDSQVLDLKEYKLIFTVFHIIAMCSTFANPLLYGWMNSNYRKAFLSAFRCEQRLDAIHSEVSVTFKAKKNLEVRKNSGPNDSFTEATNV
In words: hNPY2R CreLuc assay in 0.5% and 100% plasma (HEK-293 CRE-luciferase reporter cells). The note with it: HEK-293 reporter cells. In kind it is cell-based. An excerpt: CHO and HEK-293 recombinant cell lines express a luciferase reporter gene under control of the CAMP responsive element (CRE). As a second recombinant protein the GLP-1 and NPY2 receptors were expressed in the reporter gene HEK cells, and the GIP receptor was expressed in the reporter gene CHO cells, respectively. Stimulation of these recombinant cells with an agonist leads to an increase of intracellular CAMP levels. In the presence of CAMP, the transcription factor CRE binding protein (CREB) binds to the CRE and to the CREB binding protein (CBP), which leads to transcription of the luciferase reporter gene. Peptides upon serial-dilution in 100% DMSO were transferred into 384-well assay plates with 5 μl pre-dispensed assay buffer (1×HBSS, 20 mM HEPES, pH7.4 supplemented with 0.5% human plasma) using acoustic dispensing on a Labcyte ECHO. Cryo-preserved transgenic reporter gene cells were thawed in assay buffer. 20 μl (10.000 cells/well) were added to the plate with the peptides and incubated for 4 hours at 37° C. in a humidified incubator. Following incubation, assay plates are equilibrated to room temperature, followed by addition of 25 μl of Bright-Glo™ Luciferase reagent, incubation at room temperature for 10 minutes and analysis of luminescence (Envision Reader). […] EC50 values were calculated by non-linear regression using sigmoid concentration-response with variable slope.
The same assays were run in the presence of 100% plasma with no additional buffer constituents.
Background: A reporter such as luciferase makes a cellular process visible.

A short description of data set [1]: Solubility in 0.1 M phosphate buffer at pH 7. Type of data set: physicochemical. The note with it: 0.1 M phosphate buffer at pH 7, 10 mg/mL final peptide concentration, shaking 2 hours at room temperature, peptides as TFA-salts; measured sample pH 6.5-7.0.
[2] abbreviates: 0.5% human plasma, read-out: hGIPR 0.5% hP.
[3] abbreviates: 100% human plasma, read-out: hNPY2R 100% hP.

The structures appear in SMILES notation. Where two headings read alike, the source gives them in different places.

With `CC[C@H](C)[C@H](NC(=O)[C@H](CO)NC(=O)[C@H](Cc1ccc(O)cc1)NC(=O)[C@H](CC(=O)O)NC(=O)[C@H](CO)NC(=O)[C@@H](NC(=O)[C@H](Cc1ccccc1)NC(=O)[C@@H](NC(=O)CNC(=O)[C@H](CCC(=O)O)NC(=O)C(C)(C)NC(=O)[C@@H](N)Cc1ccc(O)cc1)[C@@H](C)O)[C@@H](C)O)C(=O)NC(C)(C)C(=O)N[C@@H](CC(C)C)C(=O)N[C@@H](CCC(=O)O)C(=O)N[C@@H](CCCCN)C(=O)N[C@@H](CCC(N)=O)C(=O)N[C@@H](C)C(=O)N[C@@H](CCC(N)=O)C(=O)NC(C)(C)C(=O)N[C@@H](C)C(=O)N[C@@H](Cc1ccccc1)C(=O)N[C@H](C(=O)N[C@@H](CCCNC(=N)N)C(=O)N[C@@H](Cc1c[nH]cn1)C(=O)N[C@@H](CC(C)C)C(=O)N[C@@H](CC(C)C)C(=O)N[C@@H](CC(N)=O)C(=O)N[C@@H](CCCCNC(=O)[C@@H](N)CCCCNC(=O)CC[C@H](NC(=O)CC[C@H](NC(=O)CC[C@H](NC(=O)CC[C@H](NC(=O)CC[C@H](NC(=O)CC[C@H](NC(=O)CCCCCCCCCCCCCCCCC(=O)O)C(=O)O)C(=O)O)C(=O)O)C(=O)O)C(=O)O)C(=O)O)C(=O)NC(C)(C)C(=O)N[C@H](C(=O)N[C@@H](CCCNC(=N)N)C(=O)N[C@@H](CCC(N)=O)C(=O)N[C@@H](CCCNC(=N)N)C(=O)N[C@@H](Cc1ccc(O)cc1)C(N)=O)[C@@H](C)O)C(C)C` [Compound 107, Y-Aib-E-G-T-F-T-S-D-Y-S-I-Aib-L-E-K-Q-A-Q-Aib-A-F-V-R-H-L-L-N-K(1,3)-Aib-T-R-Q-R-Y-NH2.C18DA-gGlu-gGlu-gGlu-gGlu-gGlu-gGlu-eLys(1,2)], the EC50 at hGIPR (setting [2]) was 0.0007 µM; at hNPY2R (0.5% human plasma, read-out: hNPY2R 0.5% hP) it was 0.0133 µM; on hNPY2R (setting [3]) it was 0.0203 µM. Further, the solubility at 2 h in data set [1] was 3900 µg/mL.
Turning to `CC[C@H](C)[C@H](NC(=O)[C@H](CC(C)C)NC(=O)[C@H](Cc1c[nH]cn1)NC(=O)[C@H](CCCNC(=N)N)NC(=O)[C@@H](NC(=O)[C@H](Cc1ccccc1)NC(=O)[C@H](C)NC(=O)C(C)(C)NC(=O)[C@H](CCC(N)=O)NC(=O)[C@H](C)NC(=O)[C@H](CCC(N)=O)NC(=O)[C@H](CCCCN)NC(=O)[C@H](CCC(=O)O)NC(=O)[C@H](CC(C)C)NC(=O)C(C)(C)NC(=O)[C@@H](NC(=O)[C@H](CO)NC(=O)[C@H](Cc1ccc(O)cc1)NC(=O)[C@H](CC(=O)O)NC(=O)[C@H](CO)NC(=O)[C@@H](NC(=O)[C@H](Cc1ccccc1)NC(=O)[C@@H](NC(=O)CNC(=O)[C@H](CCC(=O)O)NC(=O)C(C)(C)NC(=O)[C@@H](N)Cc1ccc(O)cc1)[C@@H](C)O)[C@@H](C)O)[C@@H](C)CC)C(C)C)C(=O)N[C@@H](CC(N)=O)C(=O)N[C@@H](CCCCNC(=O)COCCOCCNC(=O)CC[C@H](NC(=O)CC[C@H](NC(=O)CC[C@H](NC(=O)CC[C@H](NC(=O)CC[C@H](NC(=O)CCCCCCCCCCCCCCCCC(=O)O)C(=O)O)C(=O)O)C(=O)O)C(=O)O)C(=O)O)C(=O)NC(C)(C)C(=O)N[C@H](C(=O)N[C@@H](CCCNC(=N)N)C(=O)N[C@@H](CCC(N)=O)C(=O)N[C@@H](CCCNC(=N)N)C(=O)N[C@@H](Cc1ccc(O)cc1)C(N)=O)[C@@H](C)O` [Compound 140, Y-Aib-E-G-T-F-T-S-D-Y-S-I-Aib-L-E-K-Q-A-Q-Aib-A-F-V-R-H-L-I-N-K(1,3)-Aib-T-R-Q-R-Y-NH2.C18DA-gGlu-gGlu-gGlu-gGlu-gGlu-OEG(1,2)], the EC50 amounted to 0.0002 µM on hGIPR (setting [2]); 0.008 µM at hGIPR (100% human plasma, read-out: hGIPR 100% hP); 0.141 µM at hNPY2R (setting [3]). The solubility at 2 h in data set [1] came out at 4900 µg/mL.
Consider `CC[C@H](C)[C@H](NC(=O)[C@H](CC(C)C)NC(=O)[C@H](Cc1c[nH]cn1)NC(=O)[C@H](CCCNC(=N)N)NC(=O)[C@@H](NC(=O)[C@H](Cc1ccccc1)NC(=O)[C@H](C)NC(=O)C(C)(C)NC(=O)[C@H](CCC(N)=O)NC(=O)[C@H](C)NC(=O)[C@H](CCC(N)=O)NC(=O)[C@H](CCCCN)NC(=O)[C@H](CCC(=O)O)NC(=O)[C@H](CC(C)C)NC(=O)C(C)(C)NC(=O)[C@@H](NC(=O)[C@H](CO)NC(=O)[C@H](Cc1ccc(O)cc1)NC(=O)[C@H](CC(=O)O)NC(=O)[C@H](CO)NC(=O)[C@@H](NC(=O)[C@H](Cc1ccccc1)NC(=O)[C@@H](NC(=O)CNC(=O)[C@H](CCC(=O)O)NC(=O)C(C)(C)NC(=O)[C@@H](N)Cc1ccc(O)cc1)[C@@H](C)O)[C@@H](C)O)[C@@H](C)CC)C(C)C)C(=O)N[C@@H](CC(N)=O)C(=O)N[C@@H](CCCCNC(=O)CCCCCNC(=O)CC[C@H](NC(=O)CC[C@H](NC(=O)CC[C@H](NC(=O)CC[C@H](NC(=O)CC[C@H](NC(=O)CC[C@H](NC(=O)CCCCCCCCCCCCCCCCCCC(=O)O)C(=O)O)C(=O)O)C(=O)O)C(=O)O)C(=O)O)C(=O)O)C(=O)NC(C)(C)C(=O)N[C@H](C(=O)N[C@@H](CCCNC(=N)N)C(=O)N[C@@H](CCC(N)=O)C(=O)N[C@@H](CCCNC(=N)N)C(=O)N[C@@H](Cc1ccc(O)cc1)C(N)=O)[C@@H](C)O` [Compound 157, Y-Aib-E-G-T-F-T-S-D-Y-S-I-Aib-L-E-K-Q-A-Q-Aib-A-F-V-R-H-L-I-N-K(1,3)-Aib-T-R-Q-R-Y-NH2.C20DA-gGlu-gGlu-gGlu-gGlu-gGlu-gGlu-AHX(1,2)], for which the values for the EC50 on hGIPR (setting [2]) and on hNPY2R (setting [3]) were 0.0002 µM and 0.135 µM, respectively. Also, in data set [1], the solubility at 2 h is 5200 µg/mL.
For the compound `CC[C@H](C)[C@H](NC(=O)[C@H](CC(C)C)NC(=O)[C@H](Cc1c[nH]cn1)NC(=O)[C@H](CCCNC(=N)N)NC(=O)[C@@H](NC(=O)[C@H](Cc1ccccc1)NC(=O)[C@H](C)NC(=O)C(C)(C)NC(=O)[C@H](CCC(=O)O)NC(=O)[C@H](C)NC(=O)[C@H](CCC(N)=O)NC(=O)[C@H](CCCCN)NC(=O)[C@H](CCC(=O)O)NC(=O)[C@H](CC(C)C)NC(=O)C(C)(C)NC(=O)[C@@H](NC(=O)[C@H](CO)NC(=O)[C@H](Cc1ccc(O)cc1)NC(=O)[C@H](CC(=O)O)NC(=O)[C@H](CO)NC(=O)[C@@H](NC(=O)[C@H](Cc1ccccc1)NC(=O)[C@@H](NC(=O)CNC(=O)[C@H](CCC(=O)O)NC(=O)C(C)(C)NC(=O)[C@@H](N)Cc1ccc(O)cc1)[C@@H](C)O)[C@@H](C)O)[C@@H](C)CC)C(C)C)C(=O)N[C@@H](CC(N)=O)C(=O)N[C@@H](CCCCNC(=O)[C@@H](N)CCCCNC(=O)CC[C@H](NC(=O)CC[C@H](NC(=O)COCCOCCNC(=O)CC[C@H](NC(=O)CC[C@H](NC(=O)CC[C@H](NC(=O)CCCCCCCCCCCCCCCCCCC(=O)O)C(=O)O)C(=O)O)C(=O)O)C(=O)O)C(=O)O)C(=O)NC(C)(C)C(=O)N[C@H](C(=O)N[C@@H](CCCNC(=N)N)C(=O)N[C@@H](CCC(N)=O)C(=O)N[C@@H](CCCNC(=N)N)C(=O)N[C@@H](Cc1ccc(O)cc1)C(N)=O)[C@@H](C)O` [Compound 162, Y-Aib-E-G-T-F-T-S-D-Y-S-I-Aib-L-E-K-Q-A-E-Aib-A-F-V-R-H-L-I-N-K(1,3)-Aib-T-R-Q-R-Y-NH2.C20DA-gGlu-gGlu-gGlu-OEG-gGlu-gGlu-eLys(1,2)], the EC50 at hGIPR (setting [2]) is 0.0007 µM; on hNPY2R (setting [3]) it was 0.0438 µM. For the same compound, the solubility at 2 h in data set [1] stood at 8700 µg/mL.

In general, solubility refers to the dissolved amount per volume that the medium holds.

For the origin of these results see US20250382344A1, “Soluble GLP1/GIP/NPY2 Receptor Triple Agonists” (Boehringer Ingelheim International GmH, priority 2024, published 2025).
